The source of these data is patent US20070004715A1, “Novel spiro-quinuclidinyl derivatives for the treatment of central nervous system disorders” (priority 2005, published 2007).

Structures can show the parent of a compound that is named as a salt. Where two headings read alike, the source gives them in different places.

Assay [1] deals with T1, fluo-Aβ1-40 (Homo sapiens, UniProt P05067).
T1 construct: added 100 nM of fluo-Aβ1-40 in 100 μl
Nature of the assay: Aβ Aggregation Assay (Synthaloid plates, fluo-Aβ1-40). In kind it is biochemical. To be noted: 10 μM test compound, 100 nM fluo-Aβ1-40, 2.5 hr at room temperature; higher % = greater effectiveness at preventing aggregation. The method, then: Aβs are known to form aggregates leading to the formation of amyloid plaques that are characteristic of Alzheimer's disease.
This aggregation assay was validated using both ^125I-Aβ1-40 and fluo-Aβ1-40 in a buffer containing 50 mM HEPES, pH 7.4, 0.1% BSA, 10% FCS and protease inhibitors.
To each well of a 96-well Synthaloid plate was added 100 nM of fluo-Aβ1-40 in 100 μl. To each well was then added 10 μM of test compound. The plate was then allowed to incubate for 2.5 hr at room temperature. At the end of the incubation, unbound protein in the wells was removed by three washes using the buffer as described above. The amount of bound protein (which represents the amount of Aβ aggregation) was measured either by fluorescence measurements.
Higher fluorescence values relative to vehicle wells were interpreted as an indication of greater Aβ aggregation. […] Higher % values in the data in Table 4 below, below indicates greater effectiveness at preventing aggregation.
(§1) Both the Aβ aggregation assay as described in Example 55, particularly as run using the ^125I-Aβ1-40, and the % inhibition of AcH release assay as described in Example 56, were highly variable on a run-to-run basis. However, the relative activities of the tested compounds were reproducible.

Assay [2] relates to Synaptosomes from guinea pig hippocampus. Nature of the assay: % Inhibition of AcH Release Assay (K+-evoked 3H-acetylcholine release). To be noted: synaptosomes pre-treated with 10 μM test compound prior to 65 mM K+ stimulation. In kind it is cell-based. Here is the method: Synaptosomes from guinea pig hippocampus were incubated with 0.1 μM ^3H-choline and then subjected to repeated washes with buffer to remove unincorporated ^3H-choline. The synaptosomes were then treated with 65 mM K^+ for 30 seconds to elicit 3H-acetylcholine release.
To determine if a test compound will inhibit acetylcholine release, the synaptosomes were pre-treated with 10 μM of the test compound prior to the K+ stimulation. The decrease or increase in acetylcholine release was then measured by superfusion.
as §1

Assay [3] concerns the target T2, M1 muscarinic receptor (M1 human CHO receptor membranes) (Homo sapiens, UniProt P11229).
T2 construct: purchased Amersham 6110503; host or cells: CHO cell membranes
T2 sequence (P11229 1-460): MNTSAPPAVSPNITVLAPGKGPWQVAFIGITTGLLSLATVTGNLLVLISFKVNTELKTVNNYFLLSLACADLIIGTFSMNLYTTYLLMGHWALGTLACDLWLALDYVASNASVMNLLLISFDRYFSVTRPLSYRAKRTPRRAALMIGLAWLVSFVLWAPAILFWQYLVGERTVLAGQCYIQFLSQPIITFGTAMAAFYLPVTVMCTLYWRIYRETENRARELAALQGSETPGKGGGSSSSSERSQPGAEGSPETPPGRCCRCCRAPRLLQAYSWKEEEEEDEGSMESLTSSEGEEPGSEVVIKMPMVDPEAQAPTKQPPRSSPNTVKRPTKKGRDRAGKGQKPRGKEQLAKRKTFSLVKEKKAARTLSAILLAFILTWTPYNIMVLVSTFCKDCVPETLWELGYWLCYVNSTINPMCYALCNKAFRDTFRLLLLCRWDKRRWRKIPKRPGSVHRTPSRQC
Nature of the assay: M1 Muscarinic Receptor % Inhibition Assay (SPA, tritiated scopolamine). In kind it is binding.

For assay [4], the system named is Synaptosomes from guinea pig hippocampus. Conditions: peptide at 100 μM; 'known to' inhibit release; cited from earlier work.

T1 sequence (P05067 672-711): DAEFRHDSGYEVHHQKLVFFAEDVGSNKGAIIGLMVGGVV

Turning to `Cc1ccc(N2C(=N)CC3(CN4CCC3CC4)OC2=O)cc1Cl` (stereo not drawn) [Compound 109, 3′-(3-chloro-4-methylphenyl)-quinuclidine-3-spiro-4′-iminooxan-2-ones trifluoroacetate salt], the “Aβ aggregation inhibition (%)” value in assay [1] is given as 80%. Also, the “Inhibition of acetylcholine release” value in assay [2] was 33%. In addition, in assay [3] (1 μM compound), the “% Inhibition @1 μM” value is 90%. Also, the “% Inhibition @10 μM” value in assay [3] (10 μM compound) came to 98%.
Regarding “Aβ1-42: β-amyloid1-42 peptide, forms oligomers, fibrils and amyloid plaques”, the “Inhibition of acetylcholine release” value in assay [4] is reported as 33%.
Turning to `COc1cccc(N2C(=O)OC3(CN4CCC3CC4)C2=O)c1` (stereo not drawn) [Compound 14, 3′-(3-methoxyphenyl)-quinuclidine-3-spiro-5′-oxazolidine-2′,4′-dione trifluoroacetate salt], the “Aβ aggregation inhibition (%)” value in assay [1] is 42%. Besides, the “Inhibition of acetylcholine release” value in assay [2] is listed as 14%.
In the case of `O=C1OC2(CN3CCC2CC3)C(=O)N1c1ccc(Cl)c(Cl)c1` (stereo not drawn) [Compound 5, 3′-(3,4-dichlorophenyl)-quinuclidine-3-spiro-5′-oxazolidine-2′,4′-dione trifluoroacetate salt], in assay [1], the “Aβ aggregation inhibition (%)” value amounted to 98%. In addition, in assay [2], the “Inhibition of acetylcholine release” value is recorded as 27%.
Turning to `O=C1OC2(CN3CCC2CC3)C(=O)N1c1cc(C(F)(F)F)cc(C(F)(F)F)c1` (stereo not drawn) [Compound 8, 3′-(3,5-bis(trifluoromethyl)phenyl)-quinuclidine-3-spiro-5′-oxazolidine-2′,4′-dione trifluoroacetate salt], the “Aβ aggregation inhibition (%)” value in assay [1] was found to be 0%. Moreover, in assay [2], the “Inhibition of acetylcholine release” value is reported as 77%.
Regarding “Aβ1-40: β-amyloid peptide 1-40, known to inhibit acetylcholine release from synaptosomes”, the “Inhibition of acetylcholine release” value in assay [4] is recorded as 33%.
As to `Cc1ccc(N2C(=N)CC3(CN4CCC3CC4)OC2=O)cc1` (stereo not drawn) [Compound 101, 3′-(4-methylphenyl)-quinuclidine-3-spiro-4′-iminooxan-2-ones trifluoroacetate salt], in assay [1], the “Aβ aggregation inhibition (%)” value turned out to be 27%. Further, the “Inhibition of acetylcholine release” value in assay [2] came to 24%.
For the compound `Cc1cc(C)cc(N2C(=N)CC3(CN4CCC3CC4)OC2=O)c1` (stereo not drawn) [Compound 106, 3′-(3,5-dimethylphenyl)-quinuclidine-3-spiro-4′-iminooxan-2-ones trifluoroacetate salt], in assay [1], the “Aβ aggregation inhibition (%)” value was found to be 80%. Besides, in assay [2], the “Inhibition of acetylcholine release” value is recorded as 18%.
With `CCOC(=O)CN1C(=O)OC2(CN3CCC2CC3)C1=O` (stereo not drawn) [Compound 30, 3′-(2-ethoxycarbonylmethyl)-quinuclidine-3-spiro-5′-oxazolidine-2′,4′-dione hydrochloride], the “Aβ aggregation inhibition (%)” value in assay [1] is reported as 100%. Moreover, the “Inhibition of acetylcholine release” value in assay [2] is listed as 21%.
